In PMC8450872 (Human Reproduction (Oxford, England), 2021):

Target: CatSper (Homo sapiens, UniProt Q7RTX7+Q86XQ3+Q8NEC5+Q96P56)
Assay: whole-cell patch clamp of human sperm
Format: cell-based

Sequence of CatSper (Q96P56 whole entry): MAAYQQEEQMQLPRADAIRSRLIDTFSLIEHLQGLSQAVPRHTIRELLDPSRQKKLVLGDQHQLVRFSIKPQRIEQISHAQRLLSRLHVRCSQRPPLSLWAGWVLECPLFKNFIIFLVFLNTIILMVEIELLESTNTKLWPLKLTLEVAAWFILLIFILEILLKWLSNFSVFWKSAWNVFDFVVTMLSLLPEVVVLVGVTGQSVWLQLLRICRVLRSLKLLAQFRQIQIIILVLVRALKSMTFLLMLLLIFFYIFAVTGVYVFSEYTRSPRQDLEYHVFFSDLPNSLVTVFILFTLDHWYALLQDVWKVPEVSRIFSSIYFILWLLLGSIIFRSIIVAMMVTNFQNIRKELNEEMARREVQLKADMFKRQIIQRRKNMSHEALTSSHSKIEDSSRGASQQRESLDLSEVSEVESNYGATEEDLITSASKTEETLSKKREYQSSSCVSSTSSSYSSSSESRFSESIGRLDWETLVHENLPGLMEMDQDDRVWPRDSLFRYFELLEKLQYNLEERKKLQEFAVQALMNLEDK
Sequence of CatSper (Q8NEC5 whole entry): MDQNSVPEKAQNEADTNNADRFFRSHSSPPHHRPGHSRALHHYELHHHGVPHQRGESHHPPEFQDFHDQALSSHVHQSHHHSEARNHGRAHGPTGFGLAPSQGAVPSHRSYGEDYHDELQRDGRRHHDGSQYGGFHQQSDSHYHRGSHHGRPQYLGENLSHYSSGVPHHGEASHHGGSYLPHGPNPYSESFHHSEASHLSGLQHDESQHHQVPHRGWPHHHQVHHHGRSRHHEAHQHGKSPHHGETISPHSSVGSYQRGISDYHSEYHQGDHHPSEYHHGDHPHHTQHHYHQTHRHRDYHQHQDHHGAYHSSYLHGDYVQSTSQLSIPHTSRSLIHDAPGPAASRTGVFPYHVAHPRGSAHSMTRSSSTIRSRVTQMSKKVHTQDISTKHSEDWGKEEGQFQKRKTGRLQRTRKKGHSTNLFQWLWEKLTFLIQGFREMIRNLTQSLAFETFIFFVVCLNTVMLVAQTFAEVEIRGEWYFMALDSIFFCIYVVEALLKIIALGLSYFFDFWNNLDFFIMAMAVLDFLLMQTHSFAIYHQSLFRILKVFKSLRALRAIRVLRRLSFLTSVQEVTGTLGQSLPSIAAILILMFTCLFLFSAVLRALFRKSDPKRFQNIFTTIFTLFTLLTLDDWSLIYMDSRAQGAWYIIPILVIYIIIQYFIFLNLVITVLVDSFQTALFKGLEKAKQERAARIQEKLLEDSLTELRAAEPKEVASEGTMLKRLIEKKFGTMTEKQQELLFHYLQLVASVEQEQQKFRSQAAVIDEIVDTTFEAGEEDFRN
Sequence of CatSper (Q86XQ3 whole entry): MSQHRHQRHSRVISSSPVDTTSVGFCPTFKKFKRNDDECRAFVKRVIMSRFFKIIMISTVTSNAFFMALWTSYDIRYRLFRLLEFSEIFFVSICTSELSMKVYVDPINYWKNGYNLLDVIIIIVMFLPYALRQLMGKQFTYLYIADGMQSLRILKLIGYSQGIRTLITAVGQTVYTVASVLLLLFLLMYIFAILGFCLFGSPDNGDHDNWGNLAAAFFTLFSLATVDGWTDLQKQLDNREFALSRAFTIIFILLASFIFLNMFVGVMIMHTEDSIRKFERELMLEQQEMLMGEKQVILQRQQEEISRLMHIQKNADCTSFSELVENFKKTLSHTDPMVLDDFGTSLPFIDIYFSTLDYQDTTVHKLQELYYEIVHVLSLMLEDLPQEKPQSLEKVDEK
Sequence of CatSper (Q7RTX7 whole entry): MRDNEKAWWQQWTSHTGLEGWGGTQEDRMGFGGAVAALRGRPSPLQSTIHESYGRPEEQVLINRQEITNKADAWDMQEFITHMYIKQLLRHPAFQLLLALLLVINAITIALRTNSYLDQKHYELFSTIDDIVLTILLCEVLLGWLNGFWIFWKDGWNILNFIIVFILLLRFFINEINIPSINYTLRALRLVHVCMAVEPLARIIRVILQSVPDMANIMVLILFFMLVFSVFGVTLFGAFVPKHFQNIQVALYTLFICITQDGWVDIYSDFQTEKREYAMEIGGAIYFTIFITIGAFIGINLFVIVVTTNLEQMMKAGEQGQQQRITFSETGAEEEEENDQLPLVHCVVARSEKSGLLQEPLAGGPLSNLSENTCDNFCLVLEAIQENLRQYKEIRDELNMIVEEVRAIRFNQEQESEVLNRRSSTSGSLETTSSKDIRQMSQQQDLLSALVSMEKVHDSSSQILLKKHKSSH

Question: CN[C@H]1CC[C@@H](c2ccc(Cl)c(Cl)c2)c2ccccc21 [Sertraline] was tested. Which IC50 did it give?
Answer: 4.62 ± 1.18 µM
